From ChEMBL document CHEMBL4813991, “Design, synthesis and bioactivity study on 5-phenylfuran derivatives as potent reversal agents against P-glycoprotein-mediated multidrug resistance in MCF-7/ADR cell” (Eur J Med Chem, 2021) come the findings set out here.

The test system of series [1] is NCI/ADR-RES. In words: Antiproliferative activity against human MCF7/ADR cells incubated for 48 hrs by CCK-8 assay. It counts as functional, cell-based. Background: Tetrazolium dyes change colour on reduction, which living cells bring about.
Series [2] has as its target T1, ATP-dependent translocase ABCB1 (Homo sapiens, UniProt P08183). In words: Inhibition of P-glycoprotein in human MCF7/ADR cells assessed as reversal fold by measuring reduction in paclitaxel IC50 at 5 uM incubated for 48 hrs by CCK-8 assay. It counts as cell-based. The settings on record: nci/adr-res.
Series [3] can be described thus: Antiproliferative activity against human MCF7/ADR cells assessed as inhibition rate at 50 uM incubated for 48 hrs by CCK-8 assay. It counts as functional. The settings on record: NCI/ADR-RES.
In series [4] the test system is MCF7. In words: Antiproliferative activity against human MCF7 cells assessed as inhibition rate at 50 uM incubated for 48 hrs by CCK-8 assay. It counts as functional.
Series [5] has as its system NCI/ADR-RES. In words: Effect on P-glycoprotein expression in human MCF7/ADR cells upto 10 uM after 48 hrs by Western blot analysis. It counts as functional, cell-based. Conditions: dose microM <=10, time 48.0 hrs.
Series [6] concerns the target T1, ATP-dependent translocase ABCB1. In words: Inhibition of P-glycoprotein in human MCF7/ADR cells assessed as rhodamine-123 accumulation by measuring fluorescence intensity at 0.1 uM measured after 30 mins by flow cytometry analysis. It counts as cell-based. Conditions: nci/adr-res, 0.5 h. Background: Flow cytometry measures light scatter and fluorescence of single cells or particles in a stream.

The target is the same in series [7]. In words: Inhibition of P-glycoprotein in human MCF7/ADR cells assessed as reversal fold by measuring reduction in doxorubicin IC50 at 0.05 uM incubated for 48 hrs by CCK-8 assay. It counts as cell-based. The settings on record: nci/adr-res.
For series [8] the target is unchanged. In words: Inhibition of P-glycoprotein in human MCF7/ADR cells assessed as rhodamine-123 accumulation by measuring fluorescence intensity at 1 uM measured after 30 mins by flow cytometry analysis. It counts as cell-based. The settings on record: nci/adr-res, 0.5 h.
Series [9] has the same target. In words: Inhibition of P-glycoprotein in human MCF7/ADR cells assessed as reversal fold by measuring reduction in doxorubicin IC50 at 0.5 uM incubated for 48 hrs by CCK-8 assay. It counts as cell-based. Conditions: nci/adr-res.
Series [10] shares this target. In words: Inhibition of P-glycoprotein in human MCF7/ADR cells assessed as rhodamine-123 accumulation by measuring fluorescence intensity at 10 uM measured after 30 mins by flow cytometry analysis. It counts as cell-based. The settings on record: nci/adr-res, 0.5 h.
For series [11], the system named is MCF7. In words: Antiproliferative activity against human MCF7 cells assessed as inhibition rate at 10 uM incubated for 48 hrs by CCK-8 assay. It counts as functional.
A short description of series [12]: Antiproliferative activity against human MCF7/ADR cells assessed as inhibition rate at 10 uM incubated for 48 hrs by CCK-8 assay. Conditions: NCI/ADR-RES. It counts as functional.
Series [13] addresses T1, ATP-dependent translocase ABCB1. In words: Inhibition of P-glycoprotein in human MCF7/ADR cells assessed as reversal fold by measuring reduction in daunorubicin IC50 at 5 uM incubated for 48 hrs by CCK-8 assay. It counts as cell-based. Conditions: nci/adr-res.
The target is the same in series [14]. In words: Inhibition of P-glycoprotein in human MCF7/ADR cells assessed as reversal fold by measuring reduction in vincristine IC50 at 5 uM incubated for 48 hrs by CCK-8 assay. It counts as cell-based. Conditions: nci/adr-res.

Active and inactive are the calls of the source. The rule behind the calls is not given here.

T1 sequence (P08183 whole entry): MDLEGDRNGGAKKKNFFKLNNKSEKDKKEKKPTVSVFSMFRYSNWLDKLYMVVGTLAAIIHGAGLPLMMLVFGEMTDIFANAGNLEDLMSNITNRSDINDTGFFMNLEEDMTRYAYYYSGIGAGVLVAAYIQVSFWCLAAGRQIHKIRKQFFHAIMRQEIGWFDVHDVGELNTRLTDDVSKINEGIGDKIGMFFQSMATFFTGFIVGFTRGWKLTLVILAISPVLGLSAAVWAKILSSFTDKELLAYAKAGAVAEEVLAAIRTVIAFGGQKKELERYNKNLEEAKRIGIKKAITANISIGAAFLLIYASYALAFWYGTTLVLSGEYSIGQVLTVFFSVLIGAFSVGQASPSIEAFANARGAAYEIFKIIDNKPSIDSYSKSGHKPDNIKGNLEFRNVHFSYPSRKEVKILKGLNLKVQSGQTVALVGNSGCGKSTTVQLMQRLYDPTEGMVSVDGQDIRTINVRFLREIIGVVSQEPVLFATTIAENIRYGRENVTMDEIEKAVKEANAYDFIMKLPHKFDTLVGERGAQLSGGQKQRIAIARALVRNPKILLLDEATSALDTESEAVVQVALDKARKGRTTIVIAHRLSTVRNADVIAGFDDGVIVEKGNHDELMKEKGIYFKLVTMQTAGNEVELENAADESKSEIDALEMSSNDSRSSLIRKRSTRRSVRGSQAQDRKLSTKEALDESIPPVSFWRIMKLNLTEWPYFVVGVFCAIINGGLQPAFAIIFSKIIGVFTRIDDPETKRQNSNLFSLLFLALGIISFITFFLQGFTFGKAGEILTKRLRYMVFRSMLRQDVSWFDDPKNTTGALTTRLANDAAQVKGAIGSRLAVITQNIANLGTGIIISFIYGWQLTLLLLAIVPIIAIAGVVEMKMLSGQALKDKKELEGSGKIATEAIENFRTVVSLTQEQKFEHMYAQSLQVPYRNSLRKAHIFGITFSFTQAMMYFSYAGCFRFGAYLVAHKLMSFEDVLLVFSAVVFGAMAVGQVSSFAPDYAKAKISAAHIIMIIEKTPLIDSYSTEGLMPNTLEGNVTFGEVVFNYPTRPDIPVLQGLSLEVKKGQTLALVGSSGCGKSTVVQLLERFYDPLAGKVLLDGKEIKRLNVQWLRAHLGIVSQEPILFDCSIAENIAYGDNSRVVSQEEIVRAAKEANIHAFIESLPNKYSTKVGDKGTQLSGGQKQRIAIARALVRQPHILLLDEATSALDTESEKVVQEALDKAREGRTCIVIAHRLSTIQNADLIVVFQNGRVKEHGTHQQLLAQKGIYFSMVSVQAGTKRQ

In the series with NCI/ADR-RES [1], `CC(=O)O[C@H]1C(=O)[C@@]2(C)[C@H]([C@H](OC(=O)c3ccccc3)[C@]3(O)C[C@H](OC(=O)[C@H](O)[C@@H](NC(=O)c4ccccc4)c4ccccc4)C(C)=C1C3(C)C)[C@]1(OC(C)=O)CO[C@@H]1C[C@@H]2O` [PACLITAXEL] registered an IC50 of 58.7 µM. Besides, the “fold change (FC)” value in [2] came out at 22.6.
On to `CCCCOc1ccc(-c2ccc(C(=O)N3CCc4cc(OC)c(OC)cc4C3)o2)cc1`, for which the results for the inhibition at 50 µM (in series [3]; with MCF7 [4]) were 25.4% and 21%, respectively.
With `COc1cc2c(cc1OC)CN(C(=O)c1ccc(-c3ccc(OC(C)C)cc3)o1)CC2`, the result in the series on NCI/ADR-RES [5] was inactive. The inhibition at 50 µM in series [3] came out at 20%; in the series on MCF7 [4], 38.1%. The entries for the “inhibition (INH)” value in series [6], in series [8] and in series [10] were “Not Active”, “Active” and “Active”, respectively. Besides, the “fold change (FC)” value was found to be 1.9 in series [7] and 6.7 in series [9].
Take `COc1ccc(-c2ccc(C(=O)N3CCc4cc(OC)c(OC)cc4C3)o2)cc1OC`: the inhibition at 10 µM in the series with MCF7 [11] worked out at 17.6%. Besides, the inhibition at 50 µM amounted to 26.7% in series [3] and 41.8% with MCF7 [4].
On to `CCCOc1ccc(-c2ccc(C(=O)N3CCc4cc(OC)c(OC)cc4C3)o2)cc1`, for which the inhibition at 50 µM in series [3] is 32.3%; in the series with MCF7 [4] it was 36.2%.
The like results for `COc1cc2c(cc1OC)CN(C(=O)c1ccc(-c3ccc(OCC(C)C)cc3)o1)CC2` were, in that order, 11.9% and 19.2%.
As to `COc1cc2c(cc1OC)CN(C(=O)c1ccc(-c3ccc(Oc4ccccc4)cc3)o1)CC2`, the inhibition at 10 µM stood at 7% in the series on MCF7 [11] and 27.6% in series [12]. For the same compound, the inhibition at 50 µM in series [3] worked out at 57%; with MCF7 [4] it was 45.4%.
As for `COc1cc2c(cc1OC)CN(C(=O)c1ccc(-c3cc(OC)c(OC)c(OC)c3)o1)CC2`, the inhibition at 10 µM was found to be 30% in the series on MCF7 [11] and 19.6% in series [12]. Also, the inhibition at 50 µM stood at 51.2% in [3] and 64.7% with MCF7 [4].
Consider `CCOc1ccc(-c2ccc(C(=O)N3CCc4cc(OC)c(OC)cc4C3)o2)cc1`, for which the inhibition at 50 µM was determined as 8.1% in series [3] and 20.5% in the series with MCF7 [4].
The like results for `COc1cccc(-c2ccc(C(=O)N3CCc4cc(OC)c(OC)cc4C3)o2)c1` were, in that order, 1.5% and -9.9%.
In the case of `COc1cc2c(cc1OC)CN(C(=O)c1ccc(-c3cccc(OC)c3OC)o1)CC2`, the inhibition at 50 µM in series [3] was found to be 10%; in the series with MCF7 [4], 39.4%.
For the compound `COc1cc(OC)cc(-c2ccc(C(=O)N3CCc4cc(OC)c(OC)cc4C3)o2)c1`, the inhibition at 10 µM with MCF7 [11] worked out at 19.8%; in [12], 21.7%. For the same compound, the inhibition at 50 µM in series [3] came out at 52.9%; with MCF7 [4] it was 81.8%.
On the same counts, the results for `COc1ccc(-c2ccc(C(=O)N3CCc4cc(OC)c(OC)cc4C3)o2)c(OC)c1` are 15.4%, 28.4%, 59.8% and 49.3%.
As for `C/C=C/C[C@@H](C)[C@@H](O)[C@H]1C(=O)N[C@@H](CC)C(=O)N(C)CC(=O)N(C)[C@@H](CC(C)C)C(=O)N[C@@H](C(C)C)C(=O)N(C)[C@@H](CC(C)C)C(=O)N[C@@H](C)C(=O)N[C@H](C)C(=O)N(C)[C@@H](CC(C)C)C(=O)N(C)[C@@H](CC(C)C)C(=O)N(C)[C@@H](C(C)C)C(=O)N1C` [CYCLOSPORINE], the inhibition at 10 µM in the series with MCF7 [11] was found to be 19.3%; in series [12], 22.7%.
Consider `COc1cc2c(cc1OC)CN(C(=O)c1ccc(-c3ccc(SC(C)C)cc3)o1)CC2`, for which the inhibition at 50 µM is 39% in [3] and 33.6% in the series on MCF7 [4].
`COc1cc2c(cc1OC)CN(C(=O)c1ccc(-c3ccccc3OC)o1)CC2`: the inhibition at 10 µM in the series with MCF7 [11] amounted to 55.9%. Besides, the inhibition at 50 µM in series [3] was 36.9%; in the series with MCF7 [4] it was 66%.
Regarding `COc1cc2c(cc1OC)CN(C(=O)c1ccc(-c3ccc4c(c3)OCO4)o1)CC2`, the inhibition at 50 µM in series [3] was 5.4%; with MCF7 [4], 34%.
Consider `COc1cc2c(cc1OC)CN(C(=O)c1ccc(-c3ccc(OC(C)(C)C)cc3)o1)CC2`, for which the inhibition at 50 µM in [3] worked out at 28.9%; with MCF7 [4] it was 33.8%.
In the series with NCI/ADR-RES [1], `COc1cccc2c1C(=O)c1c(O)c3c(c(O)c1C2=O)C[C@@](O)(C(C)=O)C[C@@H]3O[C@H]1C[C@H](N)[C@H](O)[C@H](C)O1` [DAUNORUBICIN] came in with an IC50 of 51.6 µM. Besides, the “fold change (FC)” value in series [13] came out at 2.8.
`COc1ccc(OC)c(-c2ccc(C(=O)N3CCc4cc(OC)c(OC)cc4C3)o2)c1`: the inhibition at 10 µM is 11.4% with MCF7 [11] and 23.2% in [12]. Also, the inhibition at 50 µM in series [3] was 68.2%; with MCF7 [4] it was 63.6%.
On to `CC[C@]1(O)C[C@H]2CN(CCc3c([nH]c4ccccc34)[C@@](C(=O)OC)(c3cc4c(cc3OC)N(C=O)[C@H]3[C@@](O)(C(=O)OC)[C@H](OC(C)=O)[C@]5(CC)C=CCN6CC[C@]43[C@@H]65)C2)C1` [VINCRISTINE], for which 10.1 µM corresponded to half-maximal inhibition with NCI/ADR-RES [1] (IC50). Besides, the “fold change (FC)” value in [14] is reported as 62.8.
As for `COc1cc2c(cc1OC)CN(C(=O)c1ccc(-c3ccc(OC(F)(F)F)cc3)o1)CC2`, the results for the inhibition at 50 µM (in [3]; with MCF7 [4]) were 12.7% and -4.1%, respectively.
For the compound `COc1ccc(-c2ccc(C(=O)N3CCc4cc(OC)c(OC)cc4C3)o2)cc1`, the figures for the inhibition at 50 µM (in series [3]; with MCF7 [4]) were -2.1% and 20.4%, respectively.
For `COc1ccc(CCN(C)CCCC(C#N)(c2ccc(OC)c(OC)c2)C(C)C)cc1OC` (stereo unspecified), the inhibition at 10 µM in the series with MCF7 [11] is 8.3%; in series [12], 25%.

One may read the IC50 as the concentration needed to halve the response being measured. What is called inhibition is the drop in the measured response relative to a control, in per cent.
